Test systems include NCI/ADR-RES; DU-145; NCI-H460; SNB-19; RXF 393; MOLT-4; BT-549; SNB-75; CCRF-CEM; A498; SF-268; LOX IMVI; HCT-116; MDA-N; HT-29; OVCAR-5; UACC-62; ACHN; OVCAR-3; UO-31.
Test in all cases: inhibition of tumour cell growth, NCI panel, 48 h

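Tested at 5 concentrations; 48 h exposure; 96-well plates; endpoints linearly interpolated, else capped at highest concentration. GI50: concentration for 50% inhibition of growth.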 Active and inactive are the calls of the source. Cut-off read from the data, not from the text of the source: active = GI50 up to about 1.1 µM and inactive = higher.

Data on 10 molecules can be found in ChEMBL document CHEMBL1201862, “PubChem BioAssay data set” (2004).

As for `Clc1cccc(Cl)c1/C=N/C12CC3CC(CC(C3)C1)C2`, the GI50 in the test with NCI/ADR-RES, with DU-145, with NCI-H460, with SNB-19, with RXF 393 and with MOLT-4 was > 10 µM (inactive) each time. In addition, the GI50 in the test with BT-549 was > 10 µM (inactive); with SNB-75, 6.47 µM (inactive); in the test with CCRF-CEM, > 10 µM (inactive); with A498 it was > 10 µM (inactive); in the test on SF-268 it was > 10 µM (inactive); in the test on LOX IMVI, > 10 µM (inactive). Moreover, the GI50 in the test with HCT-116, in the test with MDA-N, with HT-29, in the test with OVCAR-5, in the test with UACC-62 and with ACHN was > 10 µM (inactive) throughout. Further, in the test on OVCAR-3, the GI50 is > 10 µM (inactive).

As to `CC1(C)Oc2ccc(NC(=O)CCC(N)C(=O)O)cc2O1` (stereo unspecified), the GI50 in the test with NCI/ADR-RES, in the test with DU-145, with NCI-H460, in the test on SNB-19, in the test with RXF 393 and in the test with MOLT-4 was > 100 µM (inactive) each time. The GI50 in the test on BT-549, with SNB-75, in the test on CCRF-CEM, in the test with A498, in the test with LOX IMVI and with HCT-116 was > 100 µM (inactive) each time. Also, the GI50 in the test on MDA-N, in the test on HT-29, in the test on OVCAR-5, in the test with UACC-62, in the test with ACHN and in the test with UO-31 was > 100 µM (inactive) in each case. In the test with OVCAR-3, the GI50 was > 100 µM (inactive).

On to `c1ccc2c(c1)nnn2C1CCCCO1` (stereo unspecified), for which the GI50 in the test on NCI/ADR-RES, in the test on DU-145, in the test on NCI-H460, in the test with SNB-19, with RXF 393 and in the test on MOLT-4 was > 100 µM (inactive) in each case. Besides, the GI50 in the test on BT-549, with SNB-75, in the test with CCRF-CEM, with A498, in the test on SF-268 and in the test with LOX IMVI was > 100 µM (inactive) in each case. Further, the GI50 with HCT-116, with MDA-N, in the test with HT-29, with OVCAR-5, with UACC-62 and in the test on ACHN was > 100 µM (inactive) throughout. Further, the GI50 with UO-31 and in the test with OVCAR-3 was > 100 µM (inactive) throughout.

In the case of `COc1ccc(C(NCCNC(c2ccc(OC)c(OC)c2)c2cc3c(cc2O)OCO3)c2cc3c(cc2O)OCO3)cc1OC` (stereo unspecified), the GI50 in the test with NCI/ADR-RES was 2.13 µM (inactive); in the test on DU-145, 2.8 µM (inactive); in the test on NCI-H460, 4.35 µM (inactive); in the test on SNB-19, 4.06 µM (inactive); in the test on RXF 393, 1.72 µM (inactive); in the test on MOLT-4, 0.918 µM (active). The GI50 in the test with BT-549 is 2.12 µM (inactive); in the test with SNB-75 it was 3.56 µM (inactive); with CCRF-CEM, 0.141 µM (active); with A498, 7.45 µM (inactive); in the test with SF-268 it was 1.63 µM (inactive); in the test on LOX IMVI, 1.8 µM (inactive). Also, the GI50 is 2.26 µM (inactive) with HCT-116; 1.64 µM (inactive) in the test on MDA-N; 2.64 µM (inactive) in the test on HT-29; 4.57 µM (inactive) in the test with OVCAR-5; 2.53 µM (inactive) with UACC-62; 2.64 µM (inactive) in the test on ACHN. Besides, the GI50 in the test with UO-31 is 2.8 µM (inactive); in the test with OVCAR-3, 2.65 µM (inactive).

Regarding `C1=C2SSC3=CC=C(SSc4ccc(s4)SSC4=CC=C(SSC(=C1)S2)S4)S3`, the GI50 with NCI/ADR-RES, in the test on DU-145, in the test with NCI-H460, in the test with SNB-19, in the test on RXF 393 and in the test on MOLT-4 was > 100 µM (inactive) throughout. In addition, the GI50 in the test with BT-549, in the test with SNB-75, with CCRF-CEM, in the test on A498, in the test on SF-268 and in the test on LOX IMVI was > 100 µM (inactive) in each case. Also, the GI50 with HCT-116, in the test with MDA-N, with HT-29, in the test on OVCAR-5, with ACHN and in the test on UO-31 was > 100 µM (inactive) in each case. Also, in the test on OVCAR-3, the GI50 was > 100 µM (inactive).

For `CN(CCNC(=O)c1nn(-c2ccccc2)c2c1ccc1ccccc12)CCNC(=O)c1nn(-c2ccccc2)c2c1ccc1ccccc12`, the GI50 was 2.55 µM (inactive) in the test on NCI/ADR-RES; 4.85 µM (inactive) in the test with DU-145; 1.41 µM (inactive) in the test with NCI-H460; 2.54 µM (inactive) in the test with SNB-19; 1.62 µM (inactive) with RXF 393; 0.38 µM (active) with MOLT-4. Besides, the GI50 with BT-549 was 10.2 µM (inactive); in the test on SNB-75, 2.18 µM (inactive); with CCRF-CEM, 2.9 µM (inactive); with A498, 2 µM (inactive); in the test on SF-268, 2.38 µM (inactive); in the test on LOX IMVI it was 1.77 µM (inactive). In addition, the GI50 was 1.53 µM (inactive) in the test on HCT-116; 1.75 µM (inactive) in the test on MDA-N; 2.94 µM (inactive) in the test with HT-29; 4.49 µM (inactive) in the test on OVCAR-5; 1.77 µM (inactive) with UACC-62; 2.11 µM (inactive) with ACHN. In addition, the GI50 was 2.07 µM (inactive) in the test on UO-31 and 1.71 µM (inactive) with OVCAR-3.

For `N/N=C(/CC(O)(C(F)(F)F)C(F)(F)F)c1ccccc1`, the GI50 with NCI/ADR-RES, with DU-145, in the test with NCI-H460, in the test on SNB-19, in the test with RXF 393 and in the test on MOLT-4 was > 10 µM (inactive) each time. For the same molecule, the GI50 with BT-549, in the test with SNB-75, in the test with CCRF-CEM, in the test with A498, with SF-268 and in the test on LOX IMVI was > 10 µM (inactive) each time. Moreover, the GI50 in the test with HCT-116, in the test with MDA-N, in the test on HT-29, with OVCAR-5, in the test on UACC-62 and with ACHN was > 10 µM (inactive) in each case. In the test on OVCAR-3, the GI50 is 7.4 µM (inactive).

With `CCOc1cc(C2CC(c3ccc(NS(=O)(=O)c4cc([N+](=O)[O-])ccc4C)cc3)=NN2C(=O)c2ccccc2)ccc1O` (stereo unspecified), the GI50 with NCI/ADR-RES was 23.3 µM (inactive); in the test with DU-145, 32.7 µM (inactive); with SNB-19 it was 29.6 µM (inactive); in the test with RXF 393, 11.4 µM (inactive); in the test with MOLT-4, 19.4 µM (inactive); in the test on BT-549 it was 20.1 µM (inactive). Also, the GI50 with SNB-75 is 14.1 µM (inactive); in the test on CCRF-CEM, 20.7 µM (inactive); in the test on A498, 10.2 µM (inactive); in the test with SF-268, 15.7 µM (inactive); in the test with LOX IMVI, 26.9 µM (inactive); with HCT-116 it was 15.3 µM (inactive). In addition, the GI50 is 21.8 µM (inactive) with MDA-N; 26.5 µM (inactive) in the test on HT-29; 36.6 µM (inactive) in the test on OVCAR-5; 18.5 µM (inactive) with ACHN; 15.2 µM (inactive) with UO-31; 12 µM (inactive) in the test on OVCAR-3.

Turning to `COc1ccc(CNNC(=O)c2cc[n+]([BH2-]C#N)cc2)cc1OC`, the GI50 with NCI/ADR-RES, with DU-145, in the test with NCI-H460, in the test with SNB-19, in the test with RXF 393 and with MOLT-4 was > 100 µM (inactive) throughout. For the same molecule, the GI50 with BT-549, with SNB-75, in the test with CCRF-CEM, in the test on A498, in the test on SF-268 and with LOX IMVI was > 100 µM (inactive) throughout. Also, the GI50 with HCT-116, in the test on MDA-N, in the test on OVCAR-5, with UACC-62, in the test with ACHN and in the test on UO-31 was > 100 µM (inactive) throughout. Moreover, the GI50 in the test with OVCAR-3 was > 100 µM (inactive).

`CC(C)(S)C(N)C(=O)O` (stereo not drawn) [DL-PENICILLAMINE]: the GI50 in the test with NCI/ADR-RES, with DU-145, in the test with NCI-H460, with SNB-19, in the test on RXF 393 and with MOLT-4 was > 100 µM (inactive) in each case. The GI50 in the test on BT-549, with SNB-75, in the test with A498, with SF-268, in the test with LOX IMVI and in the test with HCT-116 was > 100 µM (inactive) throughout. For the same molecule, the GI50 with MDA-N, with HT-29, in the test on OVCAR-5, in the test on UACC-62, in the test on ACHN and in the test with OVCAR-3 was > 100 µM (inactive) each time.
